According to PubChem BioAssay AID248 (DTP/NCI, 2004):
Where “and” joins values, the source holds several entries; their conditions need not be identical. Identical values can stand only once. Toxic doses and inconclusive results are not listed. Cut-off read from the data, not from the text of the source: active = T/C of 150% or more; inactive = T/C below 125%.

Tested on: L1210 leukemia ip in BDF1 mice, survival T/C
Assay: NCI In Vivo Anticancer Drug Screen. Data for tumor model L1210 Leukemia (intraperitoneal) in B6D2F1 (BDF1) mice
Details: endpoint: mean survival time, higher = longer survival
Method in brief: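 Each compound was tested against a transplantable tumor grown in mice. The endpoint was survival, with treated animals benchmarked against vehicle controls as a simple ratio.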

[1] = dose: 100.0 mg/kg/injection, schedule: Q04DX003 (ip), vehicle: saline with Tween-80
[2] = dose: 200.0 mg/kg/injection, schedule: Q04DX003 (ip), vehicle: saline with Tween-80
[3] = dose: 400.0 mg/kg/injection, schedule: Q04DX003 (ip), vehicle: saline with Tween-80
[4] = dose: 100.0 mg/kg/injection, schedule: Q04DX003 (ip), vehicle: Klucel (hydroxypropylcellulose) (HPC)
[5] = dose: 200.0 mg/kg/injection, schedule: Q04DX003 (ip), vehicle: Klucel (hydroxypropylcellulose) (HPC)
[6] = dose: 100.0 mg/kg/injection, schedule: Q01DX001 (ip), vehicle: carboxymethylcellulose (CMC)
[7] = dose: 200.0 mg/kg/injection, schedule: Q01DX001 (ip), vehicle: carboxymethylcellulose (CMC)
[8] = dose: 400.0 mg/kg/injection, schedule: Q01DX001 (ip), vehicle: carboxymethylcellulose (CMC)
[9] = dose: 100.0 mg/kg/injection, schedule: Q01DX009 (ip), vehicle: Klucel (hydroxypropylcellulose) (HPC)
[10] = dose: 200.0 mg/kg/injection, schedule: Q01DX009 (ip), vehicle: Klucel (hydroxypropylcellulose) (HPC)
[11] = dose: 200.0 mg/kg/injection, schedule: Q01DX001 (ip), vehicle: other
[12] = dose: 6.25 mg/kg/injection, schedule: Q01DX009 (ip), vehicle: saline with Tween-80
[13] = dose: 12.5 mg/kg/injection, schedule: Q01DX009 (ip), vehicle: saline with Tween-80
[14] = dose: 25.0 mg/kg/injection, schedule: Q01DX009 (ip), vehicle: saline with Tween-80

Measured: T/C

C/C(=N\OCc1cc2c(cc1Cl)OCO2)C(=O)O
inactive: [1] 100 % of control | [2] 99 % of control | [3] 91 % of control

Nc1ccc(CNC(=O)COc2ccc(Cl)cc2C(=O)O)cc1
inactive: [4] 110 % of control | [5] 94 % of control | dose: 400.0 mg/kg/injection, schedule: Q04DX003 (ip), vehicle: Klucel (hydroxypropylcellulose) (HPC) 100 % of control

CC(=O)Nc1cc2c(cc1[N+](=O)[O-])-c1ccc(F)cc1C2=O
inactive: [6] 100 % of control | [7] 96 % of control | [8] 99 % of control

CN(C)CCCNC(=O)Nc1ccccc1
inactive: [9] 100 % of control | [4] 120 % of control | [10] 98 % of control | [5] 93 % of control

CCOC(=O)c1ccc(NC(=O)Nc2cc(Cl)ccc2C)cc1
inactive: dose: 25.0 mg/kg/injection, schedule: Q01DX009 (ip), vehicle: Klucel (hydroxypropylcellulose) (HPC) 103 % of control | dose: 50.0 mg/kg/injection, schedule: Q01DX009 (ip), vehicle: Klucel (hydroxypropylcellulose) (HPC) 108 % of control | [9] 87 % of control and 89 % of control | [10] 98 % of control

C=CC[N+](CCO)(CCO)CCCCCCCCCCCCCCCCCC
inactive: dose: 12.5 mg/kg/injection, schedule: Q04DX002 (ip), vehicle: saline 102 % of control | dose: 25.0 mg/kg/injection, schedule: Q04DX002 (ip), vehicle: saline 97 % of control

Nc1ccnn2nnnc12
inactive: dose: 100.0 mg/kg/injection, schedule: Q01DX001 (ip), vehicle: saline 97 % of control | dose: 200.0 mg/kg/injection, schedule: Q01DX001 (ip), vehicle: saline 91 % of control | dose: 400.0 mg/kg/injection, schedule: Q01DX001 (ip), vehicle: saline 97 % of control

OCCOc1c(Cl)c(C(Cl)(Cl)Cl)nc2ccccc12
inactive: dose: 25.0 mg/kg/injection, schedule: Q01DX001 (ip), vehicle: Klucel (hydroxypropylcellulose) (HPC) 103 % of control | dose: 50.0 mg/kg/injection, schedule: Q01DX001 (ip), vehicle: Klucel (hydroxypropylcellulose) (HPC) 106 % of control | dose: 100.0 mg/kg/injection, schedule: Q01DX001 (ip), vehicle: Klucel (hydroxypropylcellulose) (HPC) 106 % of control

CCCCCCCCCCCCCCCCC/C=N\NC(=O)CCCC(=O)N/N=C/CCCCCCCCCCCCCCCCC
inactive: dose: 50.0 mg/kg/injection, schedule: Q01DX001 (ip), vehicle: other 90 % of control | [11] 88 % of control

CC1=CC(C)(N=[N+]=[N-])CC(C)(C)C1 (stereo not given)
inactive: dose: 37.5 mg/kg/injection, schedule: Q04DX003 (ip), vehicle: saline 107 % of control | dose: 75.0 mg/kg/injection, schedule: Q01DX001 (ip), vehicle: saline 98 % of control | dose: 75.0 mg/kg/injection, schedule: Q04DX003 (ip), vehicle: saline 100 % of control | dose: 150.0 mg/kg/injection, schedule: Q01DX001 (ip), vehicle: saline 92 % of control | dose: 150.0 mg/kg/injection, schedule: Q04DX003 (ip), vehicle: saline 103 % of control

COc1ccc(CCS(=O)(=O)N=[N+]=[N-])cc1
inactive: [1] 104 % of control | [2] 116 % of control | [3] 112 % of control

CC(=O)OC(CNCC(=O)O)C(Cl)(Cl)Cl (stereo not given)
inactive: dose: 100.0 mg/kg/injection, schedule: Q01DX009 (ip), vehicle: saline with Tween-80 90 % of control | dose: 200.0 mg/kg/injection, schedule: Q01DX009 (ip), vehicle: saline with Tween-80 95 % of control | dose: 400.0 mg/kg/injection, schedule: Q01DX009 (ip), vehicle: saline with Tween-80 97 % of control

S=c1nc[nH]c2c1ncn2/N=C/c1ccccc1
inactive: dose: 100.0 mg/kg/injection, schedule: Q01DX001 (ip), vehicle: other 96 % of control | [11] 90 % of control | dose: 400.0 mg/kg/injection, schedule: Q01DX001 (ip), vehicle: other 96 % of control

CCN(CC)c1ccc(N(C(C)=O)C(C)=O)cc1
inactive: [12] 98 % of control | [13] 96 % of control | [14] 96 % of control

CCCCNC(=O)c1c(Cl)c(Cl)c(Cl)c(Cl)c1C(=O)O
inactive: dose: 100.0 mg/kg/injection, schedule: Q04DX002 (ip), vehicle: saline with Tween-80 97 % of control | dose: 200.0 mg/kg/injection, schedule: Q04DX002 (ip), vehicle: saline with Tween-80 90 % of control

C=CC(OC(C)=O)OC(C)=O
inactive: dose: 2.8 mg/kg/injection, schedule: Q01DX Z (ip), vehicle: carboxymethylcellulose (CMC) 94 % of control | dose: 4.2 mg/kg/injection, schedule: Q01DX Z (ip), vehicle: carboxymethylcellulose (CMC) 95 % of control | dose: 6.2 mg/kg/injection, schedule: Q01DX Z (ip), vehicle: carboxymethylcellulose (CMC) 93 % of control | [12] 91 % of control | dose: 6.25 mg/kg/injection, schedule: Q01DX Z (ip), vehicle: carboxymethylcellulose (CMC) 89 % of control | dose: 9.4 mg/kg/injection, schedule: Q01DX Z (ip), vehicle: carboxymethylcellulose (CMC) 98 % of control and 111 % of control | [13] 104 % of control | dose: 12.5 mg/kg/injection, schedule: Q04DX003 (ip), vehicle: saline with Tween-80 103 % of control | [14] 110 % of control | dose: 25.0 mg/kg/injection, schedule: Q04DX003 (ip), vehicle: saline with Tween-80 111 % of control

CC(C)(C)c1ccc2oc(-c3ccc(-c4nc5cc(C(C)(C)C)ccc5o4)s3)nc2c1
inactive: dose: 100.0 mg/kg/injection, schedule: Q04DX003 (ip), vehicle: gum acacia 92 % of control | dose: 200.0 mg/kg/injection, schedule: Q04DX003 (ip), vehicle: gum acacia 99 % of control

O=c1ccc2cc(Cl)ccc2o1
inactive: dose: 50.0 mg/kg/injection, schedule: Q01DX001 (ip), vehicle: carboxymethylcellulose (CMC) 98 % of control | [6] 98 % of control | [7] 93 % of control | [8] 98 % of control

N=c1ccc2ccccc2n1O
inactive: dose: 6.25 mg/kg/injection, schedule: Q04DX003 (ip), vehicle: other 97 % of control | dose: 12.5 mg/kg/injection, schedule: Q04DX003 (ip), vehicle: other 95 % of control | dose: 25.0 mg/kg/injection, schedule: Q04DX003 (ip), vehicle: other 100 % of control

O=C(O)CCSCc1cc(=O)[nH]c(=O)[nH]1
inactive: dose: 100.0 mg/kg/injection, schedule: Q04DX003 (ip), vehicle: saline 96 % of control | dose: 200.0 mg/kg/injection, schedule: Q04DX003 (ip), vehicle: saline 98 % of control | dose: 400.0 mg/kg/injection, schedule: Q04DX003 (ip), vehicle: saline 96 % of control

CNC(C)c1ccc(C)cc1 (stereo not given)
inactive: dose: 6.25 mg/kg/injection, schedule: Q01DX009 (ip), vehicle: saline 123 % of control | dose: 12.5 mg/kg/injection, schedule: Q01DX009 (ip), vehicle: saline 95 % of control | dose: 25.0 mg/kg/injection, schedule: Q01DX009 (ip), vehicle: saline 100 % of control

O=C(COc1ccc(Cl)cc1)Oc1c(Cl)c(Cl)c(Cl)c(Cl)c1Cl
inactive: dose: 100.0 mg/kg/injection, schedule: Q04DX002 (ip), vehicle: Klucel (hydroxypropylcellulose) (HPC) 97 % of control | dose: 200.0 mg/kg/injection, schedule: Q04DX002 (ip), vehicle: Klucel (hydroxypropylcellulose) (HPC) 115 % of control | dose: 400.0 mg/kg/injection, schedule: Q04DX002 (ip), vehicle: Klucel (hydroxypropylcellulose) (HPC) 104 % of control

CC1(CO)COCOC1
inactive: dose: 50.0 mg/kg/injection, schedule: Q01DX009 (ip), vehicle: acetone 104 % of control | dose: 100.0 mg/kg/injection, schedule: Q01DX009 (ip), vehicle: acetone 108 % of control | dose: 100.0 mg/kg/injection, schedule: Q04DX003 (ip), vehicle: acetone 95 % of control | dose: 200.0 mg/kg/injection, schedule: Q01DX009 (ip), vehicle: acetone 104 % of control | dose: 200.0 mg/kg/injection, schedule: Q04DX003 (ip), vehicle: acetone 105 % of control | dose: 400.0 mg/kg/injection, schedule: Q04DX003 (ip), vehicle: acetone 97 % of control
